Values quoted from earlier work, collected in patent US11311591B2, “Use of copaifera oleoresin in pathologies of the prostate” (PIERRE FABRE MEDICAMENT, priority 2017, dated 2022).

Assays:
[1] = biological target: T1, 5αR1 (Homo sapiens, UniProt P18405)
T1 sequence (P18405 1-259): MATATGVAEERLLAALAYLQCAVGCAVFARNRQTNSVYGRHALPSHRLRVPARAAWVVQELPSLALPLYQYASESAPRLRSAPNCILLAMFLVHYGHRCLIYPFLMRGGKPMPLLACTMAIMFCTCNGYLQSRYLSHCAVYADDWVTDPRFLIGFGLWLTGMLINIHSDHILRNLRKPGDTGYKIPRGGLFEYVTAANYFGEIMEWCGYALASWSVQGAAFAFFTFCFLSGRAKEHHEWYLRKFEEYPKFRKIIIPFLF

[2] = system: serum dihydrotestosterone
[3] = biological target: HSP27 (Homo sapiens, UniProt P04792); conditions: prior art, Phytochemistry Letters 10 (2014)
HSP27, sequence (P04792 whole entry): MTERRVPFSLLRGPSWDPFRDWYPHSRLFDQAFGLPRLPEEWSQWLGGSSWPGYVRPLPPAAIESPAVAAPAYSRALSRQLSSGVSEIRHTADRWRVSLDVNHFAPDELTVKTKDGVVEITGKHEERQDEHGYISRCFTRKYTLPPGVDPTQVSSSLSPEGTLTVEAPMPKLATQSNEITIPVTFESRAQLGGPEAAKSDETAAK

| inhibition of HSP27 (in words) [3] | Structure (SMILES) | IC50 [1] [nM] | reduction of mean serum dihydrotestosterone levels [2] [%] |
| --- | --- | --- | --- |
|  | CC(C)(C)NC(=O)[C@H]1CC[C@H]2[C@@H]3CC[C@H]4NC(=O)C=C[C@]4(C)[C@H]3CC[C@]12C [Finasteride] | 360 | 70.8 |
|  | C[C@]12C=CC(=O)N[C@@H]1CC[C@@H]1[C@@H]2CC[C@]2(C)[C@@H](C(=O)Nc3cc(C(F)(F)F)ccc3C(F)(F)F)CC[C@@H]12 [dutasteride] | 6 | 94.7 |
| inhibits HSP27 | CC1CCC2(C)C(C(=O)O)=CCCC2C1(C)CCc1ccoc1 (centres unmarked) [hardwickiic acid, Hardwickiic acid] |  |  |
